Measured values as given in patent publication US7772265B2, “2-oxadiazolechromone derivatives” (Merck Patent GmbH, priority 2002, dated 2010).

Assays:
PKB = PKB (Homo sapiens, UniProt P31749); assay: PKB inhibition (comparative measurement); format: biochemical; conditions: read-out: IC50 PKB inhibitor
Tie2 = Tie2 (Homo sapiens, UniProt Q02763); assay: Tie2 inhibition; format: biochemical; conditions: read-out: IC50 Tie2 inhibitor
Tie2, sequence (Q02763 23-1124, species assumed): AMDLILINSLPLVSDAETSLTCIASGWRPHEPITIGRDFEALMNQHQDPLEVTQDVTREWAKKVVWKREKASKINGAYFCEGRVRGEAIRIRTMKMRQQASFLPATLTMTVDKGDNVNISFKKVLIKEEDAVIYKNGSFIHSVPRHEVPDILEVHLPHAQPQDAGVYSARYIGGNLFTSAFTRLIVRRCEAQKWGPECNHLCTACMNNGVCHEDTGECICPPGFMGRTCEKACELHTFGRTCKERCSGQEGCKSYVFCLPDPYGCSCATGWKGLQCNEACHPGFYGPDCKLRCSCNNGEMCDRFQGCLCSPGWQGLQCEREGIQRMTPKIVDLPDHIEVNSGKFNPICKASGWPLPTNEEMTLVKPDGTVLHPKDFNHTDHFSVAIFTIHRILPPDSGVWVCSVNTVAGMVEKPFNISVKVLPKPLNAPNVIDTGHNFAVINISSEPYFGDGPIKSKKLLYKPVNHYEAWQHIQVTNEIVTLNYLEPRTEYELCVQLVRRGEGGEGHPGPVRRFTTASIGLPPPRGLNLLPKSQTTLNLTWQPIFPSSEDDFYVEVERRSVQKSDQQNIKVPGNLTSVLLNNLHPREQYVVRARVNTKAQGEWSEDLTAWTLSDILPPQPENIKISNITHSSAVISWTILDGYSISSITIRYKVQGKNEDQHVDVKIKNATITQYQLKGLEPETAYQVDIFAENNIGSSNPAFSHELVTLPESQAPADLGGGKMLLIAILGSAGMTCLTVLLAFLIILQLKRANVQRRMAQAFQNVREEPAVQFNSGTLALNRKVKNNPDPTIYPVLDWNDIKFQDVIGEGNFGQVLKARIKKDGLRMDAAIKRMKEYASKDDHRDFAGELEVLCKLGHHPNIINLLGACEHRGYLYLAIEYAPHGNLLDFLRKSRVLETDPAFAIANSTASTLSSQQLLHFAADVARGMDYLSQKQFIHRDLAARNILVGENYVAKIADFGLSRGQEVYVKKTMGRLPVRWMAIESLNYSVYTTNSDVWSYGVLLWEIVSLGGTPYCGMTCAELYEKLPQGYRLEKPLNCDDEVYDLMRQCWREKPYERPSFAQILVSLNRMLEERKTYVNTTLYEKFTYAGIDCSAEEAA

PKB, sequence (P31749 whole entry, species assumed): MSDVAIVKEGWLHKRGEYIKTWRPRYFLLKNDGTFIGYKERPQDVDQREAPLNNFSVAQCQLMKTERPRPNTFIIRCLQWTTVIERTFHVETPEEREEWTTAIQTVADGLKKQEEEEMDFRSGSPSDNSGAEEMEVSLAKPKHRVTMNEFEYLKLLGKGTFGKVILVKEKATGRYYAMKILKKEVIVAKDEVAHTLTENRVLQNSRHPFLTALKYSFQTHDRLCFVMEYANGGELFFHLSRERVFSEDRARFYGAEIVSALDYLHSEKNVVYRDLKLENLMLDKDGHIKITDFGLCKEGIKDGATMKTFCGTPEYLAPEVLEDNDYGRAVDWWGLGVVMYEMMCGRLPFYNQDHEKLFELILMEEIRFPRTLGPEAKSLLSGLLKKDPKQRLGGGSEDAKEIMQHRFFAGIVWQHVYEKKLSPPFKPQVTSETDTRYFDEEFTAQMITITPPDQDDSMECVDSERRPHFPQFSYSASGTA

`CC(C)(C)c1ccc(-c2noc(-c3cc(=O)c4cc(O)ccc4o3)n2)cc1` [6-hydroxy-2-[3-(4-tert-butylphenyl)-1,2,4-oxadiazol-5-yl]-chromone] was tested, and the IC50 (PKB) was over 30 µM and the IC50 (Tie2) was at least 10 µM.
